Assay results: US20150231147A1, “METHODS FOR ACUTE AND LONG-TERM TREATMENT OF DRUG ADDICTION” (DemeRx, Inc., priority 2014, published 2015)
Entries after “also recorded” stand apart in the source; their conditions may differ. Like-named read-outs stand apart in the source and are kept apart here.

Columns and labels:
Format in all cases: in vivo, human
[1] = Plasma noribogaine pharmacokinetics, ascending single oral dose, healthy volunteers; conditions: for CL/F / AUC(0-inf) / Cmax / Tmax / Vd/F / AUC(0-t) / half-life: plasma; for AUC(0-inf) / Cmax / Tmax / Vd/F / AUC(0-t) / half-life: human; for AUC(0-t): read-out: AUC0-216
[2] = system: healthy, drug-free male volunteers; assay: Pupillary miosis assessed by pupillometry
Method: (§1) Pulse oximetry and capnography data were collected continuously using a GE Carescape B650 monitoring system from 2 hours prior to dosing and until six hours after dosing, and thereafter at 12, 24, 48 and 72 hours post-dosing. […] Pupillary miosis was assessed by pupillometry.

[3] = system: healthy, drug-free male volunteers; assay: Cold pressor test (analgesic effect)
Method: Analgesic effect was assessed based on duration of hand immersion in ice water and on visual analog scale (VAS) pain scores upon hand removal from the water bath.
(§2) Safety and tolerability of noribogaine were tested in the group of volunteers from Example 1. […] Safety evaluations included clinical monitoring, recording of adverse events (AEs), safety laboratory tests, vital signs, ECG telemetry from −2 h to 6 h after dosing, and 12-lead electrocardiograms (ECGs) up to 216 hours post-dosing.

[4] = system: healthy, drug-free male volunteers; assay: Safety and tolerability of noribogaine in healthy humans (adverse events, vital signs, ECG)
Method: as §1, §2

[5] = system: opioid-dependent participants; assay: Time to resumption of morphine (opioid substitution treatment, OST)
Method: The efficacy of noribogaine in humans was evaluated in opioid-dependent participants in a randomized, placebo-controlled, double-blind trial. […] See U.S. application Ser. No. 14/214,157, filed Mar. 14, 2014 and Ser. No. 14/346,655, filed Mar. 21, 2014, which are incorporated herein by reference in their entireties.
Three cohorts of nine (9) subjects (6 administered noribogaine and 3 administered placebo in each cohort) were evaluated for tolerability, pharmacokinetics, and efficacy. Cohort 1 received a single dose of 60 mg noribogaine or placebo. Cohort 2 received a single dose of 120 mg noribogaine or placebo. Cohort 3 received a single dose of 180 mg noribogaine or placebo.

[6] = system: opioid-dependent participants; assay: Opiate withdrawal scales COWS, SOWS, OOWS
Method: Patients were evaluated based on the Clinical Opiate Withdrawal Scale (COWS), Subjective Opiate Withdrawal Scale (SOWS), and Objective Opiate Withdrawal Scale (OOWS) scoring systems over the period of time between administration of noribogaine (or placebo) until resumption of OST. These scales are outlined in Guidelines for the Psychosocially Assisted Pharmacological Treatment of Opioid Dependence, World Health Organization, Geneva (2009), Annex 10, which is incorporated herein by reference in its entirety. The scales measure the intensity of withdrawal symptoms, based on clinical, subjective, and objective indicia.

[7] = system: opioid-dependent participants; assay: QT interval prolongation in opioid-dependent patients; conditions: 60, 120, 180 mg, first 24 hours post administration; correlated with serum concentration
Method: Patients' QT intervals were evaluated at regular time points throughout the study.

[8] = healthy male volunteers, single oral 3 mg noribogaine, mean (n = 6)
[9] = healthy male volunteers, single oral 10 mg noribogaine, mean (n = 6)
[10] = healthy male volunteers, single oral 30 mg noribogaine, mean (n = 6)
[11] = healthy male volunteers, single oral 60 mg noribogaine, mean (n = 6)
[12] = healthy volunteers, 3-60 mg single oral doses
[13] = after adjusting for baseline differences, p>0.9

Structure (SMILES): CC[C@H]1CC2C[C@H]3c4[nH]c5ccc(O)cc5c4CCN(C2)C13 [Noribogaine]
- CL/F [1, 8]: 41.4 L/h
- CL/F [1, 9]: 42.3 L/h
- CL/F [1, 10]: 46.9 L/h
- CL/F [1, 11]: 34.0 L/h
- Volume of distribution across dose groups [1, 12]: 1417 to 3086 L
- dose dependence of Cmax and AUC [1, 12]: increased linearly with dose
- time of peak concentrations after oral dosing [1, 12]: 2 to 3 h
- AUC(0-inf) [1, 8]: 74.2 ng·h/mL
- Cmax [1, 8]: 5.2 ng/mL
- Tmax [1, 8]: 1.9 h
- Vd/F [1, 8]: 2490 L
- AUC(0-t) [1, 8]: 72.2 ng·h/mL
- half-life ([1]; healthy male volunteers, single oral 3 mg noribogaine, mean (n = 6), read-out: t1/2 (converted)): 40.9 h
- AUC(0-inf) [1, 9]: 254 ng·h/mL
- Cmax [1, 9]: 14.5 ng/mL
- Tmax [1, 9]: 2.9 h
- Vd/F [1, 9]: 3090 L
- AUC(0-t) [1, 9]: 251 ng·h/mL
- half-life ([1]; healthy male volunteers, single oral 10 mg noribogaine, mean (n = 6), read-out: t1/2 (converted)): 49.2 h
- AUC(0-inf) [1, 10]: 700 ng·h/mL
- Cmax [1, 10]: 55.9 ng/mL
- Tmax [1, 10]: 1.8 h
- Vd/F [1, 10]: 1850 L
- AUC(0-t) [1, 10]: 678 ng·h/mL
- half-life ([1]; healthy male volunteers, single oral 30 mg noribogaine, mean (n = 6), read-out: t1/2 (converted)): 27.6 h
- AUC(0-inf) [1, 11]: 1960 ng·h/mL
- Cmax [1, 11]: 116 ng/mL
- Tmax [1, 11]: 2.4 h
- Vd/F [1, 11]: 1420 L
- AUC(0-t) [1, 11]: 1940 ng·h/mL
- half-life ([1]; healthy male volunteers, single oral 60 mg noribogaine, mean (n = 6), read-out: t1/2 (converted)): 29.1 h
- half-life ([1]; male, healthy volunteers, 3-60 mg single oral doses, read-out: Mean half-life estimates across dose groups): 28 to 50 h
- pupil diameter, each dose group compared with placebo by ANOVA [2, 13]: no statistically significant differences
- pupillary constriction [2, 12]: no evidence of pupillary constriction
- VAS pain scores, each dose group compared with placebo by ANOVA ([3]; after adjusting for baseline differences, p=0.17): no statistically significant differences
- duration of hand immersion, each dose group compared with placebo by ANOVA [3, 13]: no statistically significant differences
- analgesic effect in the cold pressor test ([3]; healthy volunteers, 3-60 mg single oral doses, 1° C. water): no analgesic effect
- Adverse events, Mild ([4]; healthy volunteers, 3 mg dose): Dizziness; also recorded: Epistaxis; also recorded: Headache; also recorded: Back pain
- Adverse events, Moderate ([4]; healthy volunteers, 3 mg dose): Headache
- number of adverse events reported ([4]; healthy volunteers, 3 mg dose group): five adverse events were reported by two subjects
- Adverse events, Mild ([4]; healthy volunteers, 10 mg dose): Headache
- number of adverse events reported ([4]; healthy volunteers, 10 mg dose group): one adverse event was reported by single subjects
- Adverse events, Mild ([4]; healthy volunteers, 30 mg dose): Headache
- number of adverse events reported ([4]; healthy volunteers, 30 mg dose group): one adverse event was reported by single subjects
- changes in oximetry, capnography, respiratory rate ([4]; healthy volunteers, 3-60 mg): no changes in oximetry or capnography, or changes in respiratory rate
- changes in vital signs or safety laboratory tests ([4]; healthy volunteers, 3-60 mg): no changes in vital signs or safety laboratory tests of note
- QTcF values ([4]; healthy volunteers, 3-60 mg, at any time): ≤ 500 ms
- intensity of adverse events ([4]; healthy volunteers, all groups, all resolved prior to study completion): mild-moderate intensity
- single increase in QTcF ([4]; one subject dosed with 10 mg, 24 hours post-dosing): > 60 ms
- average time to resumption of opioids ([5]; single 120 mg dose, given 2 hours after last morphine dose): greater than 20 hours
- Time to resumption of OST compared with untreated patients and 60 mg group ([5]; single 180 mg dose): still longer than untreated patients (7 hours, not shown) or those administered 60 mg noribogaine
- withdrawal symptoms (COWS, OOWS, SOWS), first six hours following dosing ([6]; single 120 mg dose, compared with the other patients): generally experienced fewer withdrawal symptoms than the other patients
- withdrawal symptoms (COWS, OOWS, SOWS), noribogaine compared with placebo ([6]; single 60, 120 or 180 mg dose, first six hours following dosing): Patients administered placebo generally experienced more withdrawal symptoms than patients who were administered noribogaine
- QT interval prolongation (ΔQTcl) [7]: dose-dependent increase in QT interval prolongation
